{"source": "patent US12186420B2", "about": "“Compositions and methods of use for treatment or improvement of the condition and appearance of skin” (Quthero, Inc., priority 2020, dated 2025)", "origin": "cited, not measured here", "tested_on": "keratinocyte", "conditions": "in the presence of reactive oxygen species"}
{"substance": "QHREDGS [angiopoietin-1 derived peptide]", "values": [{"measurement": "keratinocyte death", "value": "reduce keratinocyte death"}]}
